Each block holds one molecule with its values, some of them ahead of it. Activity calls are given as the source filed them. The rule behind the calls is not given here.
Columns and labels:
[1] = biological target: Sigma intracellular receptor 2 (Homo sapiens) (UniProt Q5BJF2); experiment: Antagonist activity at sigma 2 receptor in human MCF7 cells assessed as reduction in intracellular calcium release at 30 uM incubated for 3 hrs by Fluo-3 AM dye based confocal laser scanning microscopy; assay type: cell-based; settings: filed as antagonist
Sequence of Sigma intracellular receptor 2 (Homo sapiens) (Q5BJF2 whole entry): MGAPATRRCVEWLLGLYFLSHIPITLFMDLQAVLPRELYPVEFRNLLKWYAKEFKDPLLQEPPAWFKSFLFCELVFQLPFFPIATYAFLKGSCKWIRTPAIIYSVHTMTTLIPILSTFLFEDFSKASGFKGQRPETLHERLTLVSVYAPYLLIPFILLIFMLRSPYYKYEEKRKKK

[2] = biological target: Sigma non-opioid intracellular receptor 1 (Cavia porcellus, UniProt Q60492); experiment: Displacement of [3H](+)-pentazocine from sigma 1 receptor in guinea pig brain membranes after 120 mins by microbeta scintillation counting method; assay type: cell membranes, Membrane
Sequence of Sigma non-opioid intracellular receptor 1 (Q60492 whole entry): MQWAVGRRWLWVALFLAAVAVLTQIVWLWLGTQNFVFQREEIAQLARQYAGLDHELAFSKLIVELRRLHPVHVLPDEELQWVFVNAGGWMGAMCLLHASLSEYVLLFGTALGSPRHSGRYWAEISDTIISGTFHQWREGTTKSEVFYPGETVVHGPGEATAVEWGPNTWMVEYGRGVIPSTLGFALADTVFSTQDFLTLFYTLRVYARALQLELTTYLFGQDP

[3] = biological target: T1, Sigma intracellular receptor 2 (Rattus norvegicus, UniProt Q5U3Y7); experiment: Displacement of [125I]-RHM-4 from sigma 2 receptor in rat liver membranes after 120 mins by microbeta scintillation counting method; assay type: cell membranes, Membrane
T1 sequence (Q5U3Y7 whole entry): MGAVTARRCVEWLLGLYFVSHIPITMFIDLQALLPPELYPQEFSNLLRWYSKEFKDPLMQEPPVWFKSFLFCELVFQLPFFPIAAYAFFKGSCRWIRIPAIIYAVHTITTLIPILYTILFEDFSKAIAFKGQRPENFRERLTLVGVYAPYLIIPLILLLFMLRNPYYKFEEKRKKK

[4] = biological target: Sigma intracellular receptor 2 (Homo sapiens) (UniProt Q5BJF2); experiment: Agonist activity at sigma 2 receptor in human MCF7 cells assessed as stimulation of intracellular calcium release at 10 uM incubated for 3 hrs by Fluo-3 AM dye based confocal laser scanning microscopy; assay type: cell-based; settings: filed as agonist
MCF7 [5] = experiment: Cytotoxicity against human MCF7 cells assessed as reduction in cell viability incubated for 24 hrs by CCK-8 assay; assay type: functional, cell-based
MCF-10A [6] = experiment: Cytotoxicity against human MCF-10A cells assessed as reduction in cell viability incubated for 48 hrs by CCK-8 assay; assay type: cell-based
MCF7 [7] = experiment: Cytotoxicity against human MCF7 cells assessed as reduction in cell viability incubated for 48 hrs by CCK-8 assay; assay type: functional, cell-based; settings: MCF7, 48 h
HepG2 = experiment: Cytotoxicity against human HepG2 cells assessed as reduction in cell viability incubated for 24 to 48 hrs in presence of cisplatin by CCK-8 assay; assay type: functional, cell-based; settings: time 24-48 hrs
KYSE-140 = experiment: Cytotoxicity against human KYSE-140 cells assessed as reduction in cell viability incubated for 24 to 48 hrs in presence of cisplatin by CCK-8 assay; assay type: functional, cell-based; settings: time 24-48 hrs
MCF7 [8] = experiment: Cytotoxicity against human MCF7 cells assessed as reduction in cell viability incubated for 24 to 48 hrs in presence of cisplatin by CCK-8 assay; assay type: functional, cell-based; settings: time 24-48 hrs
MCF-10A [9] = experiment: Cytotoxicity against human MCF-10A cells assessed as reduction in cell viability incubated for 24 hrs by CCK-8 assay; assay type: cell-based
MDA-MB-231 = experiment: Cytotoxicity against human MDA-MB-231 cells assessed as reduction in cell viability incubated for 24 to 48 hrs in presence of cisplatin by CCK-8 assay; assay type: functional, cell-based; settings: time 24-48 hrs
[10] = Selectivity ratio of Ki for displacement of [3H](+)-pentazocine from sigma 1 receptor in guinea pig brain membranes to Ki for displacement of [125I]-RHM-4 from sigma2 receptor in rat liver membranes; assay type: cell membranes
MCF7 [11] = experiment: Cytotoxicity against human MCF7 cells assessed as reduction in cell viability at 1 to 100 uM incubated for 24 to 48 hrs by CCK-8 assay; assay type: functional, cell-based; settings: dose 1-100 µM, time 24-48 hrs
MCF-10A [12] = experiment: Cytotoxicity against human MCF-10A cells assessed as reduction in cell viability at 1 to 100 uM incubated for 24 to 48 hrs by CCK-8 assay; assay type: cell-based; settings: dose lower 1 µM, time lower 24 hrs, dose upper 100 µM, time upper 48 hrs
MCF7 [13] = experiment: Cytotoxicity against human MCF7 cells assessed as reduction in cell viability incubated for 24 to 48 hrs by CCK-8 assay; assay type: functional, cell-based
MCF-10A [14] = experiment: Cytotoxicity against human MCF-10A cells assessed as reduction in cell viability incubated for 24 to 48 hrs by CCK-8 assay; assay type: cell-based
[15] = Homo sapiens, MCF7, 24 h, read-out: IC50
[16] = Homo sapiens, MCF-10A, 24 h, read-out: IC50

SMILES: COc1cc2c(cc1OC)CN(CCCCNC(=O)c1cc(C)ccc1OC)CC2
Activity [1]: Active

SMILES: Fc1ccc(-n2cc(CCCCN3CCC4(CC3)OCc3ccccc34)c3ccccc32)cc1
Activity [4]: Active

SMILES: COc1cc2c(cc1OC)CN(CCCCCC(=O)c1c(C)c(OC)c(OC)c(OC)c1OC)CC2
Activity (MCF7 [11]): inactive
Activity (MCF-10A [12]): Non-Toxic
IC50 (MCF7 [13]): > 100 µM
IC50 (MCF-10A [14]): > 100 µM
Ki [2]: > 1 µM
Activity [1]: Active
Ki [3]: 0.00038 µM

SMILES: COc1cc2c(c(OC)c1OC)CCN(CCCCCC(=O)c1c(C)c(OC)c(OC)c(OC)c1OC)C2
Ratio Ki [10]: > 50
Ki [2]: > 1 µM
Ki [3]: 0.0197 µM

SMILES: COc1cc2c(c(OC)c1OC)CCN(CCCC(=O)c1c(C)c(OC)c(OC)c(OC)c1OC)C2
Ratio Ki [10]: > 24
Ki [2]: > 1 µM
Ki [3]: 0.0418 µM

SMILES: COc1cc2c(c(OC)c1OC)CN(CCCCCCC(=O)c1c(C)c(OC)c(OC)c(OC)c1OC)CC2
IC50 (MCF7 [5]; mcf7): Not Active
IC50 (MCF-10A [6]): 23.5 µM
IC50 (MCF7 [7]): 39.7 µM
Ki [2]: > 1 µM
IC50 (MCF-10A [9]; mcf-10a): Not Active
Ki [3]: > 1 µM

SMILES: COc1cc2c(c(OC)c1OC)CN(CCCCCC(=O)c1c(C)c(OC)c(OC)c(OC)c1OC)CC2
Ratio Ki [10]: > 79
Ki [2]: > 1 µM
Ki [3]: 0.0126 µM

SMILES: COc1cc2c(c(OC)c1OC)CN(CCCCC(=O)c1c(C)c(OC)c(OC)c(OC)c1OC)CC2
Ratio Ki [10]: > 44
Ki [2]: > 1 µM
Ki [3]: 0.0224 µM

More lines, main results first:

Ki [2]: > 1 µM
Ki [3]: > 1 µM
SMILES: COc1cc2c(c(OC)c1OC)CN(CCCC(=O)c1c(C)c(OC)c(OC)c(OC)c1OC)CC2

Ki [2]: 3.19 µM
Ki [3]: 0.956 µM
SMILES: COc1cc2c(cc1OC)CN(CCC(=O)c1c(C)c(OC)c(OC)c(OC)c1OC)CC2
IC50 (MCF7 [5]; [15]): 11.5 µM
IC50 (MCF-10A [6]): 9.77 µM
IC50 (MCF7 [7]): 8.09 µM
Activity (HepG2): Active
Activity (KYSE-140): Active
Activity (MCF7 [8]): Active
IC50 (MCF-10A [9]; [16]): 11.9 µM
Activity (MDA-MB-231): Active

Ratio Ki [10]: > 29
Ki [2]: > 1 µM
Ki [3]: 0.0342 µM
SMILES: COc1cc2c(c(OC)c1OC)CCN(CCCCC(=O)c1c(C)c(OC)c(OC)c(OC)c1OC)C2

Ki [2]: > 1 µM
Ki [3]: 3.18 µM
SMILES: COc1cc2c(c(OC)c1OC)CN(CCC(=O)c1c(C)c(OC)c(OC)c(OC)c1OC)CC2
IC50 (MCF7 [5]; [15]): 25.5 µM
IC50 (MCF-10A [6]): 27.4 µM
IC50 (MCF7 [7]): 19.7 µM
IC50 (MCF-10A [9]; [16]): 45.9 µM

Ratio Ki [10]: > 24
Ki [2]: > 1 µM
Ki [3]: 0.04 µM
SMILES: COc1cc2c(c(OC)c1OC)CCN(CCCCCCC(=O)c1c(C)c(OC)c(OC)c(OC)c1OC)C2

Ki [2]: > 1 µM
Activity [1]: Active
Ki [3]: 0.0051 µM
SMILES: COc1cc2c(cc1OC)CN(CCCC(=O)c1c(C)c(OC)c(OC)c(OC)c1OC)CC2
Activity (MCF7 [11]): inactive
Activity (MCF-10A [12]): Non-Toxic
IC50 (MCF7 [13]): > 100 µM
IC50 (MCF-10A [14]): > 100 µM

Ki [2]: > 1 µM
Activity [1]: Active
Ki [3]: 0.00133 µM
SMILES: COc1cc2c(cc1OC)CN(CCCCCCC(=O)c1c(C)c(OC)c(OC)c(OC)c1OC)CC2
IC50 (MCF7 [5]; [15]): 70.7 µM
IC50 (MCF-10A [6]): 32.3 µM
IC50 (MCF7 [7]): 51.1 µM
IC50 (MCF-10A [9]; [16]): 54.2 µM

Ki [2]: > 1 µM
Ki [3]: 11.5 µM
SMILES: COc1cc2c(c(OC)c1OC)CCN(CCC(=O)c1c(C)c(OC)c(OC)c(OC)c1OC)C2

Ki [2]: 0.16 µM
Activity [1]: Active
Ki [3]: 0.003 µM
SMILES: COc1cc2c(cc1OC)CN(CCCCC(=O)c1c(C)c(OC)c(OC)c(OC)c1OC)CC2
Activity (MCF7 [11]): inactive
Activity (MCF-10A [12]): Non-Toxic
IC50 (MCF7 [13]): > 100 µM
IC50 (MCF-10A [14]): > 100 µM

Reference: ChEMBL document CHEMBL4732061, “Synthesis, binding, and functional properties of tetrahydroisoquinolino-2-alkyl phenones as selective σR/TMEM97 ligands” (Eur J Med Chem, 2021)
